In patent US8530459B2, “Swallowtail motifs for imparting water solubility to porphyrinic compounds” (North Carolina State University, priority 2005, dated 2013):

Assays:
Assay type in all cases: physicochemical
[1] = Water-solubility of pure porphyrin in distilled water; conditions: thermodynamic from solid; 8-10 mg of pure porphyrin completely dissolved in 300 μL of distilled water; upper limit not determined; read-out: water-solubility (concentration)
Description: Determination of the upper limit of water-solubility was not possible due to the lack of material; however, in each case examined, 8-10 mg of pure porphyrin (14b, 17b, Zn17b, 17a, Zn17a) completely dissolved in 300 μL of distilled water, consistent with a concentration of >20 mM.

[2] = Stability of aqueous porphyrin solutions (naked eye, absorption spectroscopy); conditions: for precipitation or aggregation of aqueous solutions: naked eye or absorption spectroscopy; for stability of aqueous solutions: room temperature, shielded from the light
[3] = Stability of porphyrin-phosphate in protic solvent monitored by 1H NMR and LD-MS; conditions: mixture of CDCl3/CD3OD
Description: Porphyrin 12a contains both the bioconjugatable site and the water-solubilizing groups, masked by tert-butyl and methyl esters, respectively. Attempts at the simultaneous removal of the tert-butyl and methyl ester protecting groups with TMS-Br were unsuccessful. […] This compound is identical to 15b (vide infra). […] The following observations were made: • (1) The crude porphyrin-phosphates, while displaying excellent water-solubility initially, precipitated out of solution within minutes. • (2) Because TMS-Br removed some of the zinc, remetalation was attempted with zinc acetate. […] Most (but not all) of the precipitate could be redissolved in concentrated (15 wt %) aqueous NaOH. • (3) When 12b was treated with TMS-Br in the presence of TEA to suppress demetalation,^27 the deprotected porphyrin-diol 11b was not formed until the addition of a protic solvent. During the work-up, 11b formed in quantitative yield, as determined by ^1H NMR spectroscopy and LD-MS [obsd m/z 567, calcd 566 for demetalated (M+H)^+] of the purified sample. • (4) A sample of 12b in a mixture of CDCl3/CD3OD was monitored by ^1H NMR and LD-MS. Within 8 h the formation of porphyrin 11b was almost quantitative (obsd m/z 566, disappearance of phosphate methyl ester singlets). • (5) Basic hydrolysis (H2O/MeOH, NaOH, various concentrations) removed only two of the methyl esters, but none of 11b was formed.

[4] = Solubility in organic solvents
Description: Reaction of 11a with dimethyl chlorophosphate in anhydrous pyridine gave no 12a, whereas similar reaction with 11b gave a very low yield of 12b. The poor yields are presumably due to the combination of low solubility and low reactivity on the part of the porphyrin-diol starting materials. We assumed that incorporation of the dimethoxyphosphoryl groups at an earlier stage could provide a more efficient process.

| Compound | solubility [1] | precipitation or aggregation of aqueous solutions [2] | stability of aqueous solutions [2] | time to almost quantitative formation of porphyrin 11b (loss of phosphate groups) [3] | solubility in most organic solvents [4] |
| --- | --- | --- | --- | --- | --- |
| O=P(O)(O)OCCC(CCOP(=O)(O)O)c1c2nc(cc3ccc([nH]3)c(-c3ccc(Br)cc3)c3nc(cc4ccc1[nH]4)C=C3)C=C2 [14b, 5-(4-Bromophenyl)-15-(1,5-bis[dihydroxyphosphoryloxy)pent-3-yl]porphyrin] | > 20 mM | Neither precipitation nor aggregation was observed | stable for days | – | – |
| COP(=O)(OC)OCCC(CCOP(=O)(OC)OC)c1c2nc(cc3ccc([n-]3)c(-c3ccc(Br)cc3)c3nc(cc4ccc1[n-]4)C=C3)C=C2.[Zn+2] [12b, Zn(II)-5-(4-Bromophenyl)-15-[1,5-bis(dimethoxyphosphoryloxy)pent-3-yl]porphyrin] | – | – | – | ≤ 8 h | – |
| O=C(O)COc1ccc(-c2c3nc(cc4ccc([n-]4)c(C(CCP(=O)(O)O)CCP(=O)(O)O)c4nc(cc5ccc2[n-]5)C=C4)C=C3)cc1.[Zn+2] [Zn17a, Zn(II)-5-(4-(Carboxymethoxy)phenyl)-15-[1,5-bis(dihydroxyphosphoryl)pent-3-yl]porphyrin] | – | Neither precipitation nor aggregation was observed | stable for days | – | – |
| Zn(II)-5-(4-Bromophenyl)-15-[1,5-bis(dihydroxyphosphoryl)pent-3-yl]porphyrin [Zn17b] | – | Neither precipitation nor aggregation was observed | stable for days | – | – |
| Zn(II)-5-(4-tert-Butoxycarbonylmethoxyphenyl)-5-(1,5-dihydroxypent-3-yl)-porphyrin [11a] | – | – | – | – | only sparingly soluble |
| Zn(II)-5-(4-Bromophenyl)-15-(1,5-dihydroxypent-3-yl)porphyrin [11b] | – | – | – | – | only sparingly soluble |
| O=P(O)(O)CCC(CCP(=O)(O)O)c1c2nc(cc3ccc([nH]3)c(-c3ccc(Br)cc3)c3nc(cc4ccc1[nH]4)C=C3)C=C2 [17b, 5-(4-Bromophenyl)-15-[1,5-bis(dihydroxyphosphoryl)pent-3-yl]porphyrin] | > 20 mM | Neither precipitation nor aggregation was observed | stable for days | – | – |
| O=C(O)COc1ccc(-c2c3nc(cc4ccc([nH]4)c(C(CCP(=O)(O)O)CCP(=O)(O)O)c4nc(cc5ccc2[nH]5)C=C4)C=C3)cc1 [17a, 5-(4-(Carboxymethoxy)phenyl)-15-[1,5-bis(dihydroxyphosphoryl)pent-3-yl]porphyrin] | > 20 mM | Neither precipitation nor aggregation was observed | stable for days | – | – |
